Results as given in US5560912A, “Method for inhibiting growth of helicobacter pylori” (Technion Research & Development Foundation Ltd., priority 1994, dated 1996).

Legend:
Helicobacter pylori [1] = assay: Filter paper disc diffusion method, zone of inhibition; type: cell-based
Method: The inhibition effect was determined in-vitro, using the "Filter paper disc diffusion method" as described by Laura L. Zaika, (journal of Food Safety 9,1988,p.97-118). According to the method used, an extract of the plant was deposited on a small filter paper disc having a diameter of 0.5 cm and then placed in the center of a Petri plate containing agar growth medium inoculated with the test microorganism. The plate was incubated under microaerophilic conditions in anaerobic jars at 37° C. for 3 to 4 days and observed for microbial growth. If the extract of Cinnamon exerts antimicrobial activity, the microorganism will not grow in an area surrounding the filter paper disc. This clear area, defined as "zone of inhibition" was measured and recorded in mm. This method is well-known also for determining the activity of an antibiotic compound, by measuring the zone of inhibition arround a disc containing a sample of the antibacterial compound to be tested.
The assays used for the bacterial growth inhibition were as follows:
Two organic Cinnamon extracts, methylene chloride and ethanol in concentrations of 0.05 mg and 0.1 mg respectively were spotted on standard discs and placed on Egg Yolk Emulsion agar plate center which was previously layered with 0,1 ml of a bacterial suspension having a concentration of 10^7 CFU ml.
After the required incubation, the inhibition zone was recorded. In FIG. 2,there are presented the sensitivity of Helicobacter pylori, as determined by the inhibition diameter, using two organic extracts of Cinnamon (0,05 mg and 0.1 mg dry weight) compared with antibiotics: ampicillin (0.0. mg), tetracycline (0.03 mg), erythromycine (0.015 mg) nalidixic acid (0.03 mg), cotrimoxazole (0.025 mg). In these tests, two isolates of H.pylori were used.
The tests were carried out on Egg Yolk Emulsion agar plate, the Cinnamon concentrations on disk were in the range of […].

Helicobacter pylori [2] = assay: as above; type: cell-based; settings: read-out: Inhibition zone
[3] = Helicobacter pylori, read-out: Inhibition zone

SMILES: COc1ccccc1/C=C/C=O
- inhibition of H. pylori growth, in words (Helicobacter pylori [1]): beneficial effect on the inhibition but with a higher concentration
- Inhibition zone (Helicobacter pylori [1]; 0.2 mg/disk, * = substantial complete inhibition): 44 mm
- Inhibition zone (Helicobacter pylori [1]; 0.4 mg/disk): 57 mm
- Inhibition zone (Helicobacter pylori [1]; 0.6 mg/disk): 68 mm

SMILES: CC1=CCC2CC1C2(C)C (stereo not drawn) [Alpha-pinene]
- zone of inhibition at 2000 µg/disc (Helicobacter pylori [2]): 18 mm

SMILES: CC1=CC=C(C(C)C)CC1 [Alpha-terpinene]
- inhibition of H. pylori growth, in words (Helicobacter pylori [1]): only a lower inhibition zone
- zone of inhibition at 2000 µg/disc (Helicobacter pylori [2]): 17 mm

SMILES: O=C(OCc1ccccc1)c1ccccc1 [Benzyl-benzoate]
- zone of inhibition at 2000 µg/disc (Helicobacter pylori [2]): 17 mm

SMILES: O=CC=Cc1ccccc1 [Cinnamaldehyde]
- inhibition of H. pylori growth, in words (Helicobacter pylori [1]): substantial complete inhibition
- zone of inhibition at 50 µg/disc (Helicobacter pylori [1]; [3]): 45 mm
- zone of inhibition at 100 µg/disc (Helicobacter pylori [1]; [3]): 60 mm
- zone of inhibition at 200 µg/disc (Helicobacter pylori [1]; [3]): > 90 mm

SMILES: OC/C=C/c1ccccc1 [Cinnamic alcohol]
- inhibition of H. pylori growth, in words (Helicobacter pylori [1]): only a lower inhibition zone
- zone of inhibition at 200 µg/disc (Helicobacter pylori [1]; [3]): 12 mm
- zone of inhibition at 400 µg/disc (Helicobacter pylori [1]; Helicobacter pylori, 0.4 mg/disk): 20 mm

SMILES: CC1=CCC(O)(C(C)C)CC1 (stereo not shown) [Terpinen-4-ol]
- zone of inhibition at 2000 µg/disc (Helicobacter pylori [2]): 22 mm
